Measurements reported in patent publication US5116816A, “Cyclosporin peptolides having an α-hydroxycarboxylic acid at position 8” (Sandoz Ltd., priority 1987, dated 1992).

Test system: UV erythema
Test: UV Erythema test
Type: in vivo, guinea pigs
Conditions: topical solution, erythema estimated four hours after application
Procedure: The test is carried out on female albino guinea pigs, approx. 150 g wt. The animals are shaved on both flanks using a Braun micro razor, without causing skin irritation. For each test substance five animals are subjected to a defined intensity of UV radiation for 10 seconds on each of four areas of skin (10 mm diameter). Immediately afterwards 50 microliters of a solution of the test substance in ethanol/propylene glycol/dimethylacetamide (19:19:2 v/v) is applied to two of the irradiated areas on each animal and 50 microliters of the solvent mixture to the other two as controls. Four hours after application, the degree of erythema is estimated visually.

COc1ccc2c(c1)c(CC(=O)O)c(C)n2C(=O)c1ccc(Cl)cc1 [indomethacin]
effective concentration in UV-erythema test: 2.5%
